# Counter-ions that a name gives are not always drawn.
# Columns and labels:
# RET (V804M) kinase = RET (V804M) kinase (Homo sapiens, UniProt P07949, V804M); assay: In-vitro enzyme activity test, RET (V804M) kinase; type: biochemical; conditions: ATP 30 μM; 10 concentrations 3 μM to 0.152 nM
# Experimental: (§1) The enzyme activity was detected by a Z′-LYTE™ kinase test, and inhibitory effects of the compounds onRET and RET (V804M) kinases were evaluated with an ICs value of each compound as an index.
# (§2) The compounds used for RET and RET (V804M) kinase tests were diluted 3-fold, in 10 concentration gradients ranging from 3 μM to 0.152 nM; and the content of DMSO in detection reaction was 1%.
# (§3) Basic reaction buffer, 20 mM 4-(2-hydroxyethyl)piperazine-1-ethanesulfonic acid (Hepes) buffer (pH 7.5), 10 mM MgCl2. 1 mM 1,2-bis[2-[bis(carboxymethyl)amino]ethoxy]ethane (EGTA), 0.02% polyoxyethylene lauryl ether (Brij35), 0.02 mg/mL bovine serum albumin, 0.1 mM of Na3VO4, 2 mM dithiothreitol (DTT) and 1% DMSO.
# (§4) The compounds to be tested were dissolved in a 100% DMSO system to be diluted to 10 mM for further use. The solution was diluted by using Integra Viaflo Assist.
# (§5) Test conditions: concentrations of RET kinase, peptide substrate CHKtide and adenosine triphosphate (ATP) were […], 1000 μM and 20 μM, respectively, and concentrations of RET (V804M) kinase, substrate peptide and ATP were […], 1000 μM and 30 μM, respectively.
# (§6) Reaction process: compound solutions of different concentrations were added to a kinase/peptide solution prepared according to the test conditions, the obtained solution was incubated at room temperature for 20 minutes, and then 33P-ATP of corresponding concentrations were added, and the obtained solution was incubated at room temperature for 120 minutes. The radioactivity was detected by a filter-binding method.
# (§7) The reaction was terminated by adding phosphoric acid (concentration, 0.5%) into a kinase reaction solution, and plate reading was carried out with an Envision instrument.
# (§8) Data were converted into phosphorylation rate and inhibition rate, and the parametric curve was fitted by using GraphPad Software to obtain IC50 data of the compounds.
# RET kinase = RET kinase (Homo sapiens, UniProt P07949); assay: In-vitro enzyme activity test, RET kinase; type: biochemical; conditions: ATP 20 μM; 10 concentrations 3 μM to 0.152 nM
# RET kinase, sequence (P07949 29-1114): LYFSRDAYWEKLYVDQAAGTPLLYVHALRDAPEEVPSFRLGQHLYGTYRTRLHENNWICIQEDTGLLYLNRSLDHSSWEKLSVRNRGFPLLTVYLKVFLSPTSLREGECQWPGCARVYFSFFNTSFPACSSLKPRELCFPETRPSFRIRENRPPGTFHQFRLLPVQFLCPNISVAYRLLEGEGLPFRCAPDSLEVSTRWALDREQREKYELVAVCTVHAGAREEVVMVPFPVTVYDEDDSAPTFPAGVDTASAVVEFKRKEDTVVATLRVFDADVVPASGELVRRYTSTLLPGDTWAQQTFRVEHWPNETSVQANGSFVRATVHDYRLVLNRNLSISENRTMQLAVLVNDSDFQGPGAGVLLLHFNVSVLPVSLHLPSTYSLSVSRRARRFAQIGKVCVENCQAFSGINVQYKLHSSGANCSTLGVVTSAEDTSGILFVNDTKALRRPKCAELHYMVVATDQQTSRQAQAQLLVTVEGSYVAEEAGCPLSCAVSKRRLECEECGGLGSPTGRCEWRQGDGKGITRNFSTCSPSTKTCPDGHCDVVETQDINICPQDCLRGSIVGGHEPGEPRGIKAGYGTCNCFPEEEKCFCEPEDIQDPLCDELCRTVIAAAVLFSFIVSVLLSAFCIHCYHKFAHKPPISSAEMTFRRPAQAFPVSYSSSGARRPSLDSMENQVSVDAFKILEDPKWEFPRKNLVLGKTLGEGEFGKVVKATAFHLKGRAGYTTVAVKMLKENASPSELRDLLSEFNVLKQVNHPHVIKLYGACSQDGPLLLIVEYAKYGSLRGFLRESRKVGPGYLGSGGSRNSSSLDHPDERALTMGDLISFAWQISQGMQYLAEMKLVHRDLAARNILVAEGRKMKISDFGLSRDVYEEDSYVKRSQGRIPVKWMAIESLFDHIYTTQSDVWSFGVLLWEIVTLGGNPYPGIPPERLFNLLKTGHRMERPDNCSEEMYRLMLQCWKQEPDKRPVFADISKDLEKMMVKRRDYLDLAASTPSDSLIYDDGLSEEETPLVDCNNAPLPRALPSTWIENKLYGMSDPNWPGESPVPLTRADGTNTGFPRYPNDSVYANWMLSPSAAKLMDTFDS
# Experimental: as §1, §2, §3, §4, §5, §6, §7, §8
# RET (V804M) kinase, sequence (P07949 29-1114 V804M): as the sequence (P07949 29-1114) above, with V776M counted along it
SMILES,IC50 (RET (V804M) kinase),IC50 (RET kinase)
N#Cc1cnn2cc(C3CC3)cc(-c3ccc(N4CCN(Cc5c(F)cccc5F)CC4)nc3)c12 [Compound 1],36.1 nM,3.66 nM
N#Cc1cnn2cc(N3CCOCC3)cc(-c3ccc(N4CC5CC(C4)N5Cc4cnc5[nH]ccc5c4Cl)nc3)c12 [Compound 16],,6.08 nM
N#Cc1cnn2cc(C3=CCOCC3)cc(-c3ccc(N4CC5CC(C4)N5Cc4cnc5[nH]ccc5c4)nc3)c12 [Compound 35],5.47 nM,1.57 nM
COc1cnc(CN2C3CC2CN(c2ccc(-c4cc(C5=CCOCC5)cn5ncc(C#N)c45)cn2)C3)cn1 [Compound 36],3.79 nM,1.22 nM
N#Cc1cnn2cc(C3=CCOCC3)cc(-c3ccc(N4CC5CC(C4)N5Cc4ccc5[nH]cnc5c4)nc3)c12 [Compound 37],15.6 nM,2.3 nM
COc1ccc(CN2C3CC2CN(c2ccc(-c4cc(C5=CCNC(C)C5)cn5ncc(C#N)c45)cn2)C3)cn1 (centres unmarked) [Compound 41],11.3 nM,3.09 nM
N#Cc1cnn2cc(C3=CCOCC3)cc(-c3cnc(N4CC5CC(C4)N5Cc4ccc5[nH]ccc5c4)cn3)c12 [Compound 45],7.53 nM,1.83 nM
COc1ccc(CN2C3CC2CN(c2ccc(-c4cc(C5=CC(C)(C)OCC5)cn5ncc(C#N)c45)cn2)C3)cn1 [Compound 50],,1.87 nM
COc1ccc(CN2C3CC2CN(c2ccc(-c4cc(C5=CCOC(C)(C)C5)cn5ncc(C#N)c45)cn2)C3)cn1 [Compound 51],,1.73 nM
CN1CCC(c2cc(-c3ccc(N4CCN(Cc5c(F)cccc5F)CC4)nc3)c3c(C#N)cnn3c2)CC1 [Hydrochloride of compound 2],1410 nM,95.5 nM
C[C@@H](C(=O)N1CCN(c2ccc(-c3cc(N4CCOCC4)cn4ncc(C#N)c34)cn2)CC1)c1ccccc1 [Hydrochloride of compound 4],22.7 nM,2.42 nM
N#Cc1cnn2cc(C3=CCNCC3)cc(-c3ccc(N4CCN(Cc5c(F)cccc5F)CC4)nc3)c12 [Tfifluoroacetate of compound 25],11 nM,1.62 nM
CN1CCC(c2cc(-c3ccc(N4CCN(Cc5c(F)cccc5F)CC4)nc3)c3c(C#N)cnn3c2)C1 (centres unmarked) [Trifluoroacetate of compound 6],,34.8 nM
CCN1CCC(c2cc(-c3ccc(N4CCN(Cc5c(F)cccc5F)CC4)nc3)c3c(C#N)cnn3c2)C1 (centres unmarked) [Trifluoroacetate of compound 7],1930 nM,239 nM
COc1c(F)cc(CN2C3CC2CN(c2ccc(-c4cc(N5CCOCC5)cn5ncc(C#N)c45)cn2)C3)cc1F [Trifluoroacetate of compound 11],0.61 nM,1.3 nM
N#Cc1cnn2cc(N3CCOCC3)cc(-c3ccc(N4CC5CC(C4)N5Cc4cnc5c(c4)OCO5)nc3)c12 [Trifluoroacetate of compound 13],3.49 nM,1.57 nM
COc1ncc(CN2C3CC2CN(c2ccc(-c4cc(N5CCOCC5)cn5ncc(C#N)c45)cn2)C3)cc1F [Trifluoroacetate of compound 15],,1.21 nM
CCN1CCN(c2cc(-c3ccc(N4CC5CC(C4)N5Cc4ccc(OC)nc4)nc3)c3c(C#N)cnn3c2)CC1 [Trifluoroacetate of compound 17],,5.25 nM
COc1ccc(CN2C3CC2CN(c2ccc(-c4cc(N5CCN(C)C(=O)C5)cn5ncc(C#N)c45)cn2)C3)cn1 [Trifluoroacetate of compound 19],,2.35 nM
COc1ccc(CN2C3CC2CN(c2ccc(-c4cc(N5CCC(C)(O)CC5)cn5ncc(C#N)c45)cn2)C3)cn1 [Trifluoroacetate of compound 21],,1.98 nM
CN1CC=C(c2cc(-c3ccc(N4CCN(Cc5c(F)cccc5F)CC4)nc3)c3c(C#N)cnn3c2)CC1 [Trifluoroacetate of compound 26],22 nM,3.82 nM
CCN1CC=C(c2cc(-c3ccc(N4CCN(Cc5c(F)cccc5F)CC4)nc3)c3c(C#N)cnn3c2)CC1 [Trifluoroacetate of compound 27],33.6 nM,4.37 nM
C[C@@H](C(=O)N1CCN(c2ccc(-c3cc(C4=CCOC4)cn4ncc(C#N)c34)cn2)CC1)c1ccccc1 [Trifluoroacetate of compound 28],11.6 nM,1.58 nM
N#Cc1cnn2cc(C3=CCOCC3)cc(-c3ccc(N4CC5CC(C4)N5Cc4cnc5c(c4)OCO5)nc3)c12 [Trifluoroacetate of compound 44],,2.34 nM
COc1ccc(CN2C3CC2CN(c2ccc(-c4cc(C5=CCNC(C)(C)C5)cn5ncc(C#N)c45)cn2)C3)cn1 [Trifluoroacetate of compound 48],,2.13 nM
COc1ccc(CN2C3CC2CN(c2ccc(-c4cc(C5=CCOC5)cn5ncc(C#N)c45)cn2)C3)cn1 [Trifluoroacetate of compound 54],,2.42 nM
COc1ccc(CN2C3CC2CN(c2ccc(-c4cc(N5CCC(OC)C5)cn5ncc(C#N)c45)cn2)C3)cn1 (centres unmarked) [Trifluoroacetate of compound 77],,4.39 nM
COc1ccc(CN2C3CC2CN(c2ccc(-c4cc(N5CCC(C)(O)C5)cn5ncc(C#N)c45)cn2)C3)cn1 (centres unmarked) [Trifluoroacetate of compound 82],,2.34 nM
COc1ccc(CN2C3CC2CN(c2ccc(-c4cc(N5CC[C@@H](OC)C5)cn5ncc(C#N)c45)cn2)C3)cn1 [compound 79],,1.39 nM

# Now from value to molecule:
IC50 (RET (V804M) kinase),IC50 (RET kinase),SMILES
5.93 nM,1.21 nM,N#Cc1cnn2cc(C3=CCOCC3)cc(-c3ccc(N4CC5CC(C4)N5Cc4ccc5[nH]ccc5c4)nc3)c12 [Compound 38]
,1.13 nM,COc1ccc(CN2C3CC2CN(c2ccc(-c4cc(C5=CCC(C)(O)CC5)cn5ncc(C#N)c45)cn2)C3)cn1 (centres unmarked) [Compound 42]
,1.09 nM,COc1ccc(CN2C3CC2CN(c2ccc(-c4cc(N5CC[C@@H](O)C5)cn5ncc(C#N)c45)cn2)C3)cn1 [Compound 70]
,0.59 nM,COc1ccc(CN2C3CC2CN(c2ccc(-c4cc(N5CC[C@H](O)C5)cn5ncc(C#N)c45)cn2)C3)cn1 [Compound 71]
,1.04 nM,COc1ccc(CN2CCN(c3ccc(-c4cc(C5=CCOCC5)cn5ncc(C#N)c45)cn3)CC2)cn1 [Hydrochloride of compound 29]
3.14 nM,1.15 nM,COc1ccc(CN2C3CC2CN(c2cnc(-c4cc(C5CC5)cn5ncc(C#N)c45)cn2)C3)cn1 [Trifluoroacetate of compound 8]
1.8 nM,0.97 nM,COc1ccc(CN2C3CC2CN(c2ccc(-c4cc(N5CCOCC5)cn5ncc(C#N)c45)cn2)C3)cn1 [Trifluoroacetate of compound 9]
3.79 nM,0.69 nM,COc1ccc(CN2C3CC2CN(c2ccc(-c4cc(N5CCNCC5)cn5ncc(C#N)c45)cn2)C3)cn1 [Trifluoroacetate of compound 10]
0.51 nM,0.61 nM,CC(C)Oc1ccc(CN2C3CC2CN(c2ccc(-c4cc(N5CCOCC5)cn5ncc(C#N)c45)cn2)C3)cn1 [Trifluoroacetate of compound 12]
0.48 nM,0.72 nM,N#Cc1cnn2cc(N3CCOCC3)cc(-c3ccc(N4CC5CC(C4)N5Cc4cnc5[nH]ccc5c4)nc3)c12 [Trifluoroacetate of compound 14]
,0.9 nM,COc1ccc(CN2C3CC2CN(c2ccc(-c4cc(N5CCN(C(C)=O)CC5)cn5ncc(C#N)c45)cn2)C3)cn1 [Trifluoroacetate of compound 20]
2.04 nM,0.47 nM,N#Cc1cnn2cc(C3=CCOCC3)cc(-c3ccc(N4CCN(Cc5c(F)cccc5F)CC4)nc3)c12 [Trifluoroacetate of compound 22]
8.43 nM,1.1 nM,CN1CC=C(c2cc(-c3ccc(N4CCN(Cc5c(F)cccc5F)CC4)nc3)c3c(C#N)cnn3c2)C1 [Trifluoroacetate of compound 24]
,1.16 nM,COc1ccc(CN2C3CC2CN(c2ccc(-c4cc(C5=CCN(C)CC5)cn5ncc(C#N)c45)cn2)C3)cn1 [Trifluoroacetate of compound 46]
,0.63 nM,COc1ccc(CN2C3CC2CN(c2ccc(-c4cc(C5=CCC6(CC5)COC6)cn5ncc(C#N)c45)cn2)C3)cn1 [Trifluoroacetate of compound 47]
,0.96 nM,N#Cc1cnn2cc(C3=CCOCC3)cc(-c3ccc(N4CC5CC(C4)N5Cc4ccc(C(F)(F)F)nc4)nc3)c12 [Trifluoroacetate of compound 56]
,0.72 nM,N#Cc1cnn2cc(N3CC[C@@H](F)C3)cc(-c3ccc(N4CC5CC(C4)N5Cc4cnc5[nH]ccc5c4)nc3)c12 [Trifluoroacetate of compound 73]
,0.72 nM,N#Cc1cnn2cc(C3=CCOCC3)cc(-c3ccc(N4CC5CC(C4)N5Cc4ccnc5c4OCO5)nc3)c12 [Triftuoroacetate of compound 43]
,0.77 nM,COc1ccc(CN2C3CC2CN(c2ccc(-c4cc(N5CC[C@H](OC)C5)cn5ncc(C#N)c45)cn2)C3)cn1 [compound 78]
